The text below walks through data of PubChem BioAssay AID588677 (The Scripps Research Institute Molecular Screening Center, 2011).

This assay concerns the target Epidermal growth factor receptor (Homo sapiens) (UniProt P00533). Briefly: decrease of p-EGFR levels in colorectal cells – SW620 cells, chemiluminescent western blot, powder samples, counter-screen for KLF5 inhibitor project, late-stage follow-up (AID 588677). Conditions: 24 h, at 10 µM; for fold change: measured here: p-EGFR band fold change vs DMSO.

Calls of active or inactive are those of the source.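 How the source made its calls: active means phosphorylated EGFR protein level shifted down or up by at least 30% versus solvent-only treated cells; inactive means shift under 30% in either direction.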

Chain of Epidermal growth factor receptor (Homo sapiens) (P00533 whole entry, looked up): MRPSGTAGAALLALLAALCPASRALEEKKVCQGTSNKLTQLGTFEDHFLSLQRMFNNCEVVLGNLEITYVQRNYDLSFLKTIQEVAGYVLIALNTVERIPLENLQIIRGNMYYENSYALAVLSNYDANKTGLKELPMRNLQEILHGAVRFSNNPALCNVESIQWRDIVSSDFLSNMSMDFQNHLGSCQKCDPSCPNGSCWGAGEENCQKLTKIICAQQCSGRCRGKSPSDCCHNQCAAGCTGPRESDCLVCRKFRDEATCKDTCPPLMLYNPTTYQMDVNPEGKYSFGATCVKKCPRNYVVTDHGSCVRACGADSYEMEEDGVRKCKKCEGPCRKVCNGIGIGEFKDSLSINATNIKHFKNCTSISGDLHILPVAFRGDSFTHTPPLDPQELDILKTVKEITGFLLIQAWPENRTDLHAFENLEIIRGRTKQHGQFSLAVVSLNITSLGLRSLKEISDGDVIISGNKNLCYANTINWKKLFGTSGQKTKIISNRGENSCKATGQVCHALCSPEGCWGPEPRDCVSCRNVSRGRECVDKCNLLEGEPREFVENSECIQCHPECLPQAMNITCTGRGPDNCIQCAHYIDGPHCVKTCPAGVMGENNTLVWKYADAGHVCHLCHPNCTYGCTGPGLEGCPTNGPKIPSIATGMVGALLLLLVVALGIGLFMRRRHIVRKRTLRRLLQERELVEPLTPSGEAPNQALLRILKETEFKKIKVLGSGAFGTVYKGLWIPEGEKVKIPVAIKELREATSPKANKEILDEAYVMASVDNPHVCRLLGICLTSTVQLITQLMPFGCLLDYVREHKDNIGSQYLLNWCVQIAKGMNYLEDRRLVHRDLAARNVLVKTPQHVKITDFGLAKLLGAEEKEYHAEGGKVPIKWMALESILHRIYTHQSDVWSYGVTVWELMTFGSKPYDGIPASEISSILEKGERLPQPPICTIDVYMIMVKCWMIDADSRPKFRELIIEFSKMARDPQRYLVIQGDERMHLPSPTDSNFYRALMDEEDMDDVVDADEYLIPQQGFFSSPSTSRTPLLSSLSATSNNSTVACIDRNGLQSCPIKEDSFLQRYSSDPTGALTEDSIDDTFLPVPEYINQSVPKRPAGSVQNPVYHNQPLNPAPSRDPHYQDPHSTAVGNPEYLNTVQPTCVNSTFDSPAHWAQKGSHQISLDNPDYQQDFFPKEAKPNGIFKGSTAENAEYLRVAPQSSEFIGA

Consider `CN(C(=O)COC(=O)/C=C/c1cccc([N+](=O)[O-])c1)C1CCS(=O)(=O)C1` (stereo not given), for which the inhibition is -71.5% and the fold change was determined as 1.72.
For `CN(C(=O)CNC(=O)/C=C/c1cccc(Cl)c1)C1CCS(=O)(=O)CC1`, the fold change turned out to be 14.2.
In the case of `CN(C(=O)CNC(=O)/C=C/c1cccc(Cl)c1)C1CCS(=O)(=O)C1` (stereo not given), the inhibition is 20% (inactive) and the fold change was -1.25.
